# Patent US20240382509A1, “Cannabinoids C- and O-glycosides possessing anti-proliferative and anti-metastatic properties and process for preparation thereof” (Council of Scientific and Industrial Research, priority 2021, published 2024)
# Key:
# PC3 cells = assay: MTT cell viability assay, PC3; type: cell-based; conditions: Homo sapiens, PC-3, 48 h, read-out: Cytotoxicity (IC50) PC3, MTT, 48 h
# Description: (§1) Cell viability assay: The cell viability was determined by the standard MTT assay method. Briefly, Panc-1, HCT-116, A549, PC3, MIAPaca-2, HT-29, MDA-MB-231, MCF7 cells, and fR2cells were seeded in 96 well tissue culture plates (Nunc) at a density of 4×10^3 cells per well and treated with varying concentrations of the test compounds in triplicates. DMSO was taken as a vehicle, and its final concentration was maintained at 0.2% in the culture medium. Doxorubicin was employed as a positive control. After 44 h of incubation, MTT dye solution was added into the medium, and cells were incubated for another 4 h at 37° C. in 5% CO2. The amount of colored formazan derivatives formed was measured by taking optical density (OD) using a microplate reader (TECAN, Infinite M200 Pro) at 570 nm, and the percentage of cell viability was calculated. The IC50 values were calculated using GraphPad Prism software (Version 5.0).
# MDA-MB-231 cells [1] = assay: MTT cell viability assay, MDA-MB-231; type: cell-based; conditions: Homo sapiens, aggressive breast cancer cell line of mesenchymal origin
# Description: as §1
# (§2) Now to study its anti-migratory and anti-metastatic role in another highly metastatic cancer cells of breast origin (MDA-MB 231) the IC50 value was determined by performing MTT assay (FIG. 6a).
# MIAPaCa-2 cells = assay: In-situ gelatin degradation assay, MIAPaCa-2; type: cell-based, human; conditions: MIAPaCa-2, from 0.5 μM onwards, 36 h
# Description: (§3) Matrix gelatin degradation assay. In-situ gelatin degradation assay is performed to detect the formation of migratory structures (invadopodia & filopodia). Briefly, glass coverslips were coated with gelatin tagged with FITC, and the coated coverslips were dipped into 70% ethanol and immersed into a 6 well plate filled with RPMI and the coverslips were kept in a CO2 incubator for 1-2 h for preconditioning. Later on, both MIAPaCa-2 and MDA-MB-231 cells were seeded onto the coverslips and kept overnight for attachment. Treatment of the compound 2a (0.5, 1.5, 3 & 5 μM) was given on the next day and continued for 36 h. Upon termination, the coverslips were washed with ice-cold PBS, and then it was fixed in 4% paraformaldehyde for 15 min and then washed with PBS. Finally, the coverslips were mounted using mounting media consist of glycerol, and the edges were sealed with nail polish. After drying, the slides were observed under a fluorescence microscope to assess a degraded area's presence. The fluorescent images were captured, and the images were further processed in Image J software (Version 1.50i) to quantify the degraded area in each field.
# Now this particular derivative was further analysed for its ability to inhibit the molecular signatures of EMT. […]
# MDA-MB-231 cells [2] = assay: In-situ gelatin degradation assay, MDA-MB-231; type: cell-based, human; conditions: MDA-MB-231, 1.5 μM to 5 μM
# Description: as §3, §2
# [3] = tested on: 4T1 mouse mammary carcinoma cells; assay: 4T1 allograft breast cancer model, anti-tumor and anti-metastatic efficacy; type: in vivo
# Description: In vivo anti-metastatic and anti-tumor efficacy studies. 4T1 mouse mammary carcinoma cells is a highly aggressive cell line that forms tumors when grafted in Balb/c mice. […] All the in vivo experimental protocols were approved by the Institutional Animal Ethics Committee, CPCSEA, of the Indian Institute of Integrative Medicine, Jammu. The animals were maintained at 22° C. with a 12 h light-dark cycle and free access to feed and water inside the institutional animal house. Proper care was taken to maintain them in a healthy condition and to avoid any risk of possible pathogenic contaminations. For subcutaneous implantation of 4T1 cells, the Balb/c mice were distributed into four groups bearing five mice in each group. For tumor induction, 1.5 million 4T1 cells were suspended in serum-free media and injected into the mammary pad of the animal and kept in the animal house for tumor induction. After the tumor reached an adequate size (30-150 mm^3) the mice in the allotted groups were treated with vehicle (normal saline), 15 and 30 mg/kg 2a & 30 mg/kg DIM (positive control) for every alternate day and was continued for two weeks. After the treatment, the mice were sacrificed by cervical dislocation, and the tumor was dissected out from the mammary pad, the tumor volume was measured, and images were taken. Subsequently, to examine the anti-metastatic property of the compound 2a, the chest cavity was dissected to remove the lungs, and after washing with PBS, the metastatic nodules in the lung due to 4T1 migration were checked and subsequently counted.
# The anti-proliferative as well as anti-metastatic role of compound 2a was studied in 4T1 allograft breast cancer model. Briefly, 1.5×10^6 4T1 mammary breast cancer cells were injected in mouse mammary pad and kept undisturbed until the formation of tumor. Subsequently, the mice were treated with 15 and 30 mg/kg of compound 2a along with a positive control 30 mg/kg di-indoyl methane (DIM) molecule and normal saline as vehicle. The drugs were administered intraperitonially for each alternate day for 2 weeks. The animals were sacrificed and tumours were harvested from the mammary pad and tumor weight was measured (FIG. 7a & b). Moreover, the lungs were also removed and photographed to study the presence of metastatic patches. […] Furthermore, the tumors were subjected to tissue lysis and immunoblot analysis was performed to study the expression of Snail-1. Twist-1, STAT-3, Vimentin and E-cadherin.
# HCT-116 cells = assay: Chromosome isolation and staining (chromosomal stability); type: cell-based; conditions: HCT-116, 2a in combination with 5FU, compared to vehicle/750 nM 5FU/3 μM 2a
# Excerpt: The effect of the compound 2a in combination with DNA damaging drug 5-Fluorouracil in colon adenocarcinoma cells was studied. […] Consequently, the major repair factor RAD-51 got diminished as compared to 5FU alone treated lane. The immunoblot results also depicted the downmodulation of cellular survival factor BCL-2 and subsequent upregulation of proapoptotic protein Bax (FIG. 8a). […] Moreover, the effect of the combinatorial treatment on chromosomal stability in HCT-116 cells by chromosome isolation and staining was studied.
# [4] = tumor lysate immunoblot, 30 mg/kg
smiles,measurement,setting,value
"CCCCCc1cc(O[C@@H]2OC(CO)[C@@H](O)C(O)C2O)c2c(c1)OC(C)(C)[C@@H]1CCC(C)=C[C@@H]21 (stereo partly drawn) [Compound 2a, Δ^9-tetrahydrocannabinol-1-O-β-D-glucopyranoside]",IC50,PC3 cells,7.17 µM
same,IC50,MDA-MB-231 cells [1],1.42 µM
same,gelatin degraded area,MIAPaCa-2 cells,significant loss of gelatin degraded area
same,gelatin degradation,MDA-MB-231 cells [2],significant decrease of gelatin degradation
same,metastatic white patches on lungs,"[3]; Balb/c mice, 4T1, 15 & 30 mg/kg intraperitoneal, alternate day for 2 weeks",white patches were not observed
same,tumor weight,"[3]; Balb/c mice, 4T1, 15 and 30 mg/kg intraperitoneal, alternate day for 2 weeks, vs normal saline",drastically reduced
same,tumor E-cadherin level,[3]; [4],increased considerably
same,tumor expression of Twist-1,[3]; [4],curbed
same,"tumor expression of Snail-1, STAT-3 and Vimentin","[3]; tumor lysate immunoblot, 15 and 30 mg/kg",decreases significantly
same,chromosomal aberrations,HCT-116 cells,significantly increases chromosomal abbreations
